# Reference: PubChem BioAssay (NCI)
#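 Growth conditions: 96-well plates. Treatment: test compound, 48 hours, 5 concentrations. Analysis: linear interpolation between bracketing concentrations; unreached endpoints set to highest concentration. At the TGI there is no net growth.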
# Tested on: HCC-2998 colon
# Assay: DTP human tumour cell line panel, 48 h
row,SMILES,TGI [µM]
1,COn1cc(C=O)c2ccccc21,53.7
2,CCOC(=O)C1=C(Nc2cccc(OC)c2)OCC1=O,> 100
3,C#CCn1ncc2c(SCc3ccccc3)ncnc21,> 100
4,CCC1OC2C(CC=C(C)C)=C3OC(C)(O)C(C)(CC)C(OC(=O)c4ccccc4)C3=C3OC(=O)C=C1C32 (centres undefined),48.4
5,CCN(CC)c1ccc2cc(-c3nnc(-c4ccccc4)o3)c(=O)oc2c1,> 46.3
6,CC1=CC(C2/C(=N/O)C=C(C)CC2(C)C)C(O)C(C)(C)C1 (centres undefined),30
7,O=C(CC(c1ccccc1)N1CCCCC1)c1ccccc1 (centres undefined),15.6
8,O=C(O)c1nc(-c2ccccn2)c(-c2ccccn2)nc1C(=O)O,3.45

# Tested on: HOP-92 NSCLC
# Assay: DTP human tumour cell line panel, 48 h
row,SMILES,TGI [µM]
1,N#CSc1nc[nH]c1C(N)=O,> 100
2,CN(C)C(=O)NCCN1CCCCCc2ccccc21,> 100
3,CC1(C#N)CC(C)(C)C(/C=C2/CC(C)(C)C(/C=C3/OC(=N)CC3(C)C)=N2)=N1 (centres undefined),39.9
4,Cc1cccc(/C=N/NC(=S)NCCc2ccccn2)n1,> 100
5,O=C(C(=O)N1CCc2ccccc21)c1c[nH]c2ccccc12,> 10
6,C=CCNC1=C2C[C@@H](C)C[C@@H](OC)[C@@H](OC(=O)CCCN)[C@H](C)/C=C(\C)[C@@H](OC(N)=O)[C@H](OC)/C=C\C=C(/C)C(=O)NC(=CC1=O)C2=O,29.3
7,C[C@]12CCC(=O)C=C1CC[C@@H]1C2CC[C@]2(C)c3nn(-c4ccc(F)cc4)nc3CC12 (some centres undefined),> 100
8,CCOC(=O)C(N)CSC(=O)NC (centres undefined),341
9,CC(=O)N(C(=O)CC(=O)N/N=C\c1ccc(Br)c(N(CCC#N)CCC#N)c1)c1ccc(Cl)cc1,> 100
10,CCOC(=O)c1csc(NC(=O)C(C)N2CCCCC2)n1 (centres undefined),> 100
11,O=C1c2cc3c(cc2CC12Cc1cc4c(cc1C2=O)CCC4)CCCC3 (centres undefined),> 100
12,CC1(C)OCC2OC3(c4nc(C#N)c(N)o4)OC(C)(C)OC3C2O1 (centres undefined),> 100
13,Cc1cccc2c1Oc1cc(Cl)ccc1C2NC(=O)CCN1CCOCC1 (centres undefined),95.2
14,COC(=O)C1=C(C)NC(C)=C(C(=O)OC)C1c1ccc(/[N+]([O-])=C/c2ccccc2)cc1,35.3
15,CCN(CC)CCn1nc(N)c2nc3cc(Cl)ccc3nc21,> 100
16,COc1ccc(CCNC2=CC(=O)c3ncccc3C2=O)cc1OC,35.8

row,SMILES,TGI [µM]
1,COc1ccc2c(c1)CCc1c-2[nH]c2ccc(OC)cc12,> 100
2,CCN(CC)/C(Cl)=C(Cl)\C(=C1\Nc2ccc(OC)cc21)[N+](=O)[O-],> 100
3,O=C(NCCCNC(=O)c1ccc2c(O)c(O)ccc2c1)c1ccc2c(O)c(O)ccc2c1,> 100
4,COc1cc(/C=C2\C[C@H]3[C@@H]4CC=C5C[C@@H](O)CC[C@]5(C)[C@H]4CC[C@]3(C)C2=O)cc(OC)c1OC,> 100
5,O=C1NC(=O)C(c2c[nH]c3cc(Br)ccc23)=C1c1cn(C(c2ccccc2)(c2ccccc2)c2ccccc2)cn1,30.3
6,Cn1ccc(C(=O)NCCOCCNC(=O)c2ccn(C)c(=O)c2O)c(O)c1=O,> 100
7,CSC1=C(SC)SC(=C2SC3=C(SC(=C4SCCS4)S3)S2)S1,> 100
8,COn1cc(C=O)c2ccccc21,> 100
9,CCOC(=O)C1=C(Nc2cccc(OC)c2)OCC1=O,> 100
10,C#CCn1ncc2c(SCc3ccccc3)ncnc21,> 100
11,CCC1OC2C(CC=C(C)C)=C3OC(C)(O)C(C)(CC)C(OC(=O)c4ccccc4)C3=C3OC(=O)C=C1C32 (centres undefined),> 100
12,CCN(CC)c1ccc2cc(-c3nnc(-c4ccccc4)o3)c(=O)oc2c1,> 100
13,CC1=CC(C2/C(=N/O)C=C(C)CC2(C)C)C(O)C(C)(C)C1 (centres undefined),27.5
14,O=C(CC(c1ccccc1)N1CCCCC1)c1ccccc1 (centres undefined),32.7
15,O=C(O)c1nc(-c2ccccn2)c(-c2ccccn2)nc1C(=O)O,26.9

# Tested on: HT29 colon
# Assay: DTP human tumour cell line panel, 48 h
row,SMILES,TGI [µM]
1,N#CSc1nc[nH]c1C(N)=O,> 100
2,CN(C)C(=O)NCCN1CCCCCc2ccccc21,> 100
3,CC1(C#N)CC(C)(C)C(/C=C2/CC(C)(C)C(/C=C3/OC(=N)CC3(C)C)=N2)=N1 (centres undefined),> 100
4,Cc1cccc(/C=N/NC(=S)NCCc2ccccn2)n1,> 100
5,O=C(C(=O)N1CCc2ccccc21)c1c[nH]c2ccccc12,> 10
6,C=CCNC1=C2C[C@@H](C)C[C@@H](OC)[C@@H](OC(=O)CCCN)[C@H](C)/C=C(\C)[C@@H](OC(N)=O)[C@H](OC)/C=C\C=C(/C)C(=O)NC(=CC1=O)C2=O,21.4
7,C[C@]12CCC(=O)C=C1CC[C@@H]1C2CC[C@]2(C)c3nn(-c4ccc(F)cc4)nc3CC12 (some centres undefined),> 100
8,CCOC(=O)C(N)CSC(=O)NC (centres undefined),399
9,CCOC(=O)c1csc(NC(=O)C(C)N2CCCCC2)n1 (centres undefined),> 100
10,O=C1c2cc3c(cc2CC12Cc1cc4c(cc1C2=O)CCC4)CCCC3 (centres undefined),> 100
11,CC1(C)OCC2OC3(c4nc(C#N)c(N)o4)OC(C)(C)OC3C2O1 (centres undefined),> 100
12,Cc1cccc2c1Oc1cc(Cl)ccc1C2NC(=O)CCN1CCOCC1 (centres undefined),> 100
13,COC(=O)C1=C(C)NC(C)=C(C(=O)OC)C1c1ccc(/[N+]([O-])=C/c2ccccc2)cc1,> 100
14,CCN(CC)CCn1nc(N)c2nc3cc(Cl)ccc3nc21,> 100
15,COc1ccc(CCNC2=CC(=O)c3ncccc3C2=O)cc1OC,4.73
16,COc1ccc2c(c1)CCc1c-2[nH]c2ccc(OC)cc12,> 100
17,CCN(CC)/C(Cl)=C(Cl)\C(=C1\Nc2ccc(OC)cc21)[N+](=O)[O-],> 100
18,O=C(NCCCNC(=O)c1ccc2c(O)c(O)ccc2c1)c1ccc2c(O)c(O)ccc2c1,> 64.8
19,COc1cc(/C=C2\C[C@H]3[C@@H]4CC=C5C[C@@H](O)CC[C@]5(C)[C@H]4CC[C@]3(C)C2=O)cc(OC)c1OC,47.7
20,O=C1NC(=O)C(c2c[nH]c3cc(Br)ccc23)=C1c1cn(C(c2ccccc2)(c2ccccc2)c2ccccc2)cn1,27.1
21,Cn1ccc(C(=O)NCCOCCNC(=O)c2ccn(C)c(=O)c2O)c(O)c1=O,> 100
22,CSC1=C(SC)SC(=C2SC3=C(SC(=C4SCCS4)S3)S2)S1,> 100
23,COn1cc(C=O)c2ccccc21,> 100
24,CCOC(=O)C1=C(Nc2cccc(OC)c2)OCC1=O,> 100
25,C#CCn1ncc2c(SCc3ccccc3)ncnc21,> 100
26,CCC1OC2C(CC=C(C)C)=C3OC(C)(O)C(C)(CC)C(OC(=O)c4ccccc4)C3=C3OC(=O)C=C1C32 (centres undefined),> 100
27,CCN(CC)c1ccc2cc(-c3nnc(-c4ccccc4)o3)c(=O)oc2c1,> 100
28,CC1=CC(C2/C(=N/O)C=C(C)CC2(C)C)C(O)C(C)(C)C1 (centres undefined),29.3
29,O=C(CC(c1ccccc1)N1CCCCC1)c1ccccc1 (centres undefined),29.5
30,O=C(O)c1nc(-c2ccccn2)c(-c2ccccn2)nc1C(=O)O,8.54

# Tested on: IGROV1 ovarian
# Assay: DTP human tumour cell line panel, 48 h
row,SMILES,TGI [µM]
1,N#CSc1nc[nH]c1C(N)=O,> 100
2,CN(C)C(=O)NCCN1CCCCCc2ccccc21,> 100
3,CC1(C#N)CC(C)(C)C(/C=C2/CC(C)(C)C(/C=C3/OC(=N)CC3(C)C)=N2)=N1 (centres undefined),46.3
4,Cc1cccc(/C=N/NC(=S)NCCc2ccccn2)n1,> 100
5,O=C(C(=O)N1CCc2ccccc21)c1c[nH]c2ccccc12,> 10
6,C=CCNC1=C2C[C@@H](C)C[C@@H](OC)[C@@H](OC(=O)CCCN)[C@H](C)/C=C(\C)[C@@H](OC(N)=O)[C@H](OC)/C=C\C=C(/C)C(=O)NC(=CC1=O)C2=O,30.1
7,C[C@]12CCC(=O)C=C1CC[C@@H]1C2CC[C@]2(C)c3nn(-c4ccc(F)cc4)nc3CC12 (some centres undefined),> 100
8,CCOC(=O)C(N)CSC(=O)NC (centres undefined),481
9,CC(=O)N(C(=O)CC(=O)N/N=C\c1ccc(Br)c(N(CCC#N)CCC#N)c1)c1ccc(Cl)cc1,> 100
10,CCOC(=O)c1csc(NC(=O)C(C)N2CCCCC2)n1 (centres undefined),> 100
11,O=C1c2cc3c(cc2CC12Cc1cc4c(cc1C2=O)CCC4)CCCC3 (centres undefined),> 100
12,CC1(C)OCC2OC3(c4nc(C#N)c(N)o4)OC(C)(C)OC3C2O1 (centres undefined),> 100
13,Cc1cccc2c1Oc1cc(Cl)ccc1C2NC(=O)CCN1CCOCC1 (centres undefined),> 100
14,COC(=O)C1=C(C)NC(C)=C(C(=O)OC)C1c1ccc(/[N+]([O-])=C/c2ccccc2)cc1,> 100
15,CCN(CC)CCn1nc(N)c2nc3cc(Cl)ccc3nc21,52.8
16,COc1ccc(CCNC2=CC(=O)c3ncccc3C2=O)cc1OC,7.63
17,COc1ccc2c(c1)CCc1c-2[nH]c2ccc(OC)cc12,> 100
18,CCN(CC)/C(Cl)=C(Cl)\C(=C1\Nc2ccc(OC)cc21)[N+](=O)[O-],> 100
19,O=C(NCCCNC(=O)c1ccc2c(O)c(O)ccc2c1)c1ccc2c(O)c(O)ccc2c1,40.8
20,COc1cc(/C=C2\C[C@H]3[C@@H]4CC=C5C[C@@H](O)CC[C@]5(C)[C@H]4CC[C@]3(C)C2=O)cc(OC)c1OC,> 100
21,O=C1NC(=O)C(c2c[nH]c3cc(Br)ccc23)=C1c1cn(C(c2ccccc2)(c2ccccc2)c2ccccc2)cn1,28.5
22,CSC1=C(SC)SC(=C2SC3=C(SC(=C4SCCS4)S3)S2)S1,> 100
23,COn1cc(C=O)c2ccccc21,> 100
24,CCOC(=O)C1=C(Nc2cccc(OC)c2)OCC1=O,> 100
25,C#CCn1ncc2c(SCc3ccccc3)ncnc21,> 100
26,CCC1OC2C(CC=C(C)C)=C3OC(C)(O)C(C)(CC)C(OC(=O)c4ccccc4)C3=C3OC(=O)C=C1C32 (centres undefined),> 100
27,CCN(CC)c1ccc2cc(-c3nnc(-c4ccccc4)o3)c(=O)oc2c1,> 80.8
28,CC1=CC(C2/C(=N/O)C=C(C)CC2(C)C)C(O)C(C)(C)C1 (centres undefined),32.6
29,O=C(CC(c1ccccc1)N1CCCCC1)c1ccccc1 (centres undefined),29.1
30,O=C(O)c1nc(-c2ccccn2)c(-c2ccccn2)nc1C(=O)O,21

# Tested on: NCI-H460 lung
# Assay: DTP human tumour cell line panel, 48 h
row,SMILES,TGI [µM]
1,N#CSc1nc[nH]c1C(N)=O,> 100
2,CN(C)C(=O)NCCN1CCCCCc2ccccc21,> 100
3,CC1(C#N)CC(C)(C)C(/C=C2/CC(C)(C)C(/C=C3/OC(=N)CC3(C)C)=N2)=N1 (centres undefined),39.9
4,Cc1cccc(/C=N/NC(=S)NCCc2ccccn2)n1,> 100
5,O=C(C(=O)N1CCc2ccccc21)c1c[nH]c2ccccc12,> 10
6,C=CCNC1=C2C[C@@H](C)C[C@@H](OC)[C@@H](OC(=O)CCCN)[C@H](C)/C=C(\C)[C@@H](OC(N)=O)[C@H](OC)/C=C\C=C(/C)C(=O)NC(=CC1=O)C2=O,59
7,C[C@]12CCC(=O)C=C1CC[C@@H]1C2CC[C@]2(C)c3nn(-c4ccc(F)cc4)nc3CC12 (some centres undefined),> 100
8,CCOC(=O)C(N)CSC(=O)NC (centres undefined),397
9,CC(=O)N(C(=O)CC(=O)N/N=C\c1ccc(Br)c(N(CCC#N)CCC#N)c1)c1ccc(Cl)cc1,> 100
10,CCOC(=O)c1csc(NC(=O)C(C)N2CCCCC2)n1 (centres undefined),> 100
11,O=C1c2cc3c(cc2CC12Cc1cc4c(cc1C2=O)CCC4)CCCC3 (centres undefined),> 100
12,CC1(C)OCC2OC3(c4nc(C#N)c(N)o4)OC(C)(C)OC3C2O1 (centres undefined),> 100
13,Cc1cccc2c1Oc1cc(Cl)ccc1C2NC(=O)CCN1CCOCC1 (centres undefined),> 100
14,COC(=O)C1=C(C)NC(C)=C(C(=O)OC)C1c1ccc(/[N+]([O-])=C/c2ccccc2)cc1,> 100
15,CCN(CC)CCn1nc(N)c2nc3cc(Cl)ccc3nc21,> 100
